In US20210154186A1, “COMPOSITIONS AND METHODS FOR INHIBITING DIHYDROOROTATE DEHYDROGENASE” (Clear Creek Bio, Inc., priority 2018, published 2021):
Where two headings read alike, the source gives them in different places.

How the values were obtained:
solid malignancies = settings: 43 patients; patient with papillary carcinoma of the thyroid; cited from earlier work
[1] = mouse model of AML, daily administration of high doses; cited from earlier work
DHODH [2] = molecular target: DHODH (Mus musculus, UniProt O35435); assay: DHO remaining in plasma of mice after brequinar 50 mg/kg (FIG. 6); settings: at about 84 hours
[3] = tested on: acute myeloid leukemia (AML); assay: Clinical response of patients with AML to brequinar-containing composition; type: in vivo, human
DHODH [4] = molecular target: DHODH (Homo sapiens, UniProt Q02127); settings: for DHO plasma level threshold achieved: after a dose
[5] = tested on: leukemia-initiating cell activity; settings: mouse models of AML; only when elevated plasma levels are maintained for extended periods; cited from earlier work
[6] = 650 mg/m^2 brequinar (days 1, 8 and 15) with 75 mg/m^2 cisplatin (day 1); cited from earlier work
[7] = Adverse events observed in subjects receiving brequinar intravenously once weekly; type: in vivo, human; settings: 209 subjects, i.v. once week, median dose 1200 mg/m^2
[8] = Example 9, first patient, threshold 1,600 ng/mL
[9] = Example 10, second patient, threshold 2,900 ng/mL
[10] = Example 11, threshold 133 ng/mL

DHODH (Homo sapiens, UniProt Q02127), sequence (Q02127 whole entry): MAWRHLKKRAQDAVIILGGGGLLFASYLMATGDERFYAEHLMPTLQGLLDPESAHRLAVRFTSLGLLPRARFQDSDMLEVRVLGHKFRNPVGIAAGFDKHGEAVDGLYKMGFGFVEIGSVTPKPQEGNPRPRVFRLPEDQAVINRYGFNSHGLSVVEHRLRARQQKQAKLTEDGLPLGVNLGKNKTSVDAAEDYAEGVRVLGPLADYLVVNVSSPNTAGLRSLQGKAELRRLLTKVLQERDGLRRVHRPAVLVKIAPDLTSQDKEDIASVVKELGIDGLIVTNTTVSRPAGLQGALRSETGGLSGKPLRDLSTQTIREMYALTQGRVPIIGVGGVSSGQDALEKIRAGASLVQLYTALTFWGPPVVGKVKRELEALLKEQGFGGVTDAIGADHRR
DHODH (Mus musculus, UniProt O35435), sequence (O35435 whole entry): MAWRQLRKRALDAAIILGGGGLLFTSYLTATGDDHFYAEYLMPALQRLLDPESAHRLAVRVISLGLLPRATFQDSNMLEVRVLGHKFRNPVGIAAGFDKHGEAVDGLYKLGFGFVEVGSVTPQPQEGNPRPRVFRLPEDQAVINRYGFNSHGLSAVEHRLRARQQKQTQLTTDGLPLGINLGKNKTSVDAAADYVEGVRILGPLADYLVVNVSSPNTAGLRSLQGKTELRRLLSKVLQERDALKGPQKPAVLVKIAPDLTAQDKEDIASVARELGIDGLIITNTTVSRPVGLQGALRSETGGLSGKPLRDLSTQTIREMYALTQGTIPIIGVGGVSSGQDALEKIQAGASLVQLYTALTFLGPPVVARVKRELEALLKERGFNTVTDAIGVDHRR

SMILES: Cc1c(-c2ccc(-c3ccccc3F)cc2)nc2ccc(F)cc2c1C(=O)O [Brequinar sodium]
- tumour response observed (solid malignancies): One mixed response

SMILES: Cc1c(-c2ccc(-c3ccccc3F)cc2)nc2ccc(F)cc2c1C(=O)O [Brequinar, 6-fluoro-2-(2′-fluoro-1,1′ biphenyl-4-yl)-3-methyl-4-quinoline carboxylic acid]
- toxic effects [1]: weight loss, anemia, and thrombocytopenia
- concentration of DHO remaining in the plasma (DHODH [2]): about 100 ng/mL
- clinical response ([3]; Example 9, first patient, […], improvement of extramedullary hematopoiesis, shift to more differentiation in peripheral blasts): positive response
- clinical response ([3]; Example 10, second patient, lowering of peripheral blasts, increase in absolute neutrophil count, greater differentiation of peripheral blasts): positive response
- clinical response ([3]; Example 11, indicated by a trend towards differentiation of peripheral blasts): positive response
- DHO plasma level threshold achieved (DHODH [4]; Example 9, first patient with AML): 1,600 ng/mL
- time remained above the DHO threshold (DHODH [4]; [8]): 84 h
- time to achieve the DHO plasma level threshold (DHODH [4]; [8]): less than 24 hours
- DHO plasma level threshold achieved (DHODH [4]; Example 10, second patient with AML): 2,900 ng/mL
- time remained above the DHO threshold (DHODH [4]; [9]): 84 h
- time to achieve the DHO plasma level threshold (DHODH [4]; [9]): < 24 h
- DHO plasma level threshold achieved (DHODH [4]; Example 11, patient with AML): 133 ng/mL
- time remained above the DHO threshold (DHODH [4]; [10]): 84 h
- time to achieve the DHO plasma level threshold (DHODH [4]; [10]): less than 2 hours
- effect on leukemia-initiating cell activity [5]: decreases leukemia-initiating cell activity
- effect of the combination on individual drug pharmacokinetic parameters [6]: without significant modifications of individual drug pharmacokinetic parameters
- All Body Systems: No. of Patients Experiencing the AE, 5y Max Grade 1 [7]: 36
- All Body Systems: No. of Patients Experiencing the AE, 5y Max Grade 2 [7]: 76
- All Body Systems: No. of Patients Experiencing the AE, 5y Max Grade 3 [7]: 55
- All Body Systems: No. of Patients Experiencing the AE, 5y Max Grade 4 [7]: 35
- Anemia: No. of Patients Experiencing the AE, 5y Max Grade 1 [7]: 14
- Anemia: No. of Patients Experiencing the AE, 5y Max Grade 2 [7]: 48
- Anemia: No. of Patients Experiencing the AE, 5y Max Grade 3 [7]: 23
- Anemia: No. of Patients Experiencing the AE, 5y Max Grade 4 [7]: 5
- Anorexia: No. of Patients Experiencing the AE, 5y Max Grade 1 [7]: 11
- Anorexia: No. of Patients Experiencing the AE, 5y Max Grade 2 [7]: 3
- Anorexia: No. of Patients Experiencing the AE, 5y Max Grade 3 [7]: 1
- Anorexia: No. of Patients Experiencing the AE, 5y Max Grade 4 [7]: 0
- Constipation: No. of Patients Experiencing the AE, 5y Max Grade 1 [7]: 6
- Constipation: No. of Patients Experiencing the AE, 5y Max Grade 2 [7]: 2
- Constipation: No. of Patients Experiencing the AE, 5y Max Grade 3 [7]: 1
- Constipation: No. of Patients Experiencing the AE, 5y Max Grade 4 [7]: 0
- Diarrhea: No. of Patients Experiencing the AE, 5y Max Grade 1 [7]: 43
- Diarrhea: No. of Patients Experiencing the AE, 5y Max Grade 2 [7]: 21
- Diarrhea: No. of Patients Experiencing the AE, 5y Max Grade 3 [7]: 10
- Diarrhea: No. of Patients Experiencing the AE, 5y Max Grade 4 [7]: 3
- Dyspepsia: No. of Patients Experiencing the AE, 5y Max Grade 1 [7]: 6
- Dyspepsia: No. of Patients Experiencing the AE, 5y Max Grade 2 [7]: 1
- Dyspepsia: No. of Patients Experiencing the AE, 5y Max Grade 3 [7]: 0
- Dyspepsia: No. of Patients Experiencing the AE, 5y Max Grade 4 [7]: 0
- Fatigue: No. of Patients Experiencing the AE, 5y Max Grade 1 [7]: 23
- Fatigue: No. of Patients Experiencing the AE, 5y Max Grade 2 [7]: 8
- Fatigue: No. of Patients Experiencing the AE, 5y Max Grade 3 [7]: 2
- Fatigue: No. of Patients Experiencing the AE, 5y Max Grade 4 [7]: 0
- Fever: No. of Patients Experiencing the AE, 5y Max Grade 1 [7]: 4
- Fever: No. of Patients Experiencing the AE, 5y Max Grade 2 [7]: 7
- Fever: No. of Patients Experiencing the AE, 5y Max Grade 3 [7]: 0
- Fever: No. of Patients Experiencing the AE, 5y Max Grade 4 [7]: 0
- Granulocytopenia: No. of Patients Experiencing the AE, 5y Max Grade 1 [7]: 16
- Granulocytopenia: No. of Patients Experiencing the AE, 5y Max Grade 2 [7]: 17
- Granulocytopenia: No. of Patients Experiencing the AE, 5y Max Grade 3 [7]: 3
- Granulocytopenia: No. of Patients Experiencing the AE, 5y Max Grade 4 [7]: 5
- Headache: No. of Patients Experiencing the AE, 5y Max Grade 1 [7]: 4
- Headache: No. of Patients Experiencing the AE, 5y Max Grade 2 [7]: 3
- Headache: No. of Patients Experiencing the AE, 5y Max Grade 3 [7]: 0
- Headache: No. of Patients Experiencing the AE, 5y Max Grade 4 [7]: 0
- Infection: No. of Patients Experiencing the AE, 5y Max Grade 1 [7]: 4
- Infection: No. of Patients Experiencing the AE, 5y Max Grade 2 [7]: 3
- Infection: No. of Patients Experiencing the AE, 5y Max Grade 3 [7]: 0
- Infection: No. of Patients Experiencing the AE, 5y Max Grade 4 [7]: 0
- Leukopenia: No. of Patients Experiencing the AE, 5y Max Grade 1 [7]: 26
- Leukopenia: No. of Patients Experiencing the AE, 5y Max Grade 2 [7]: 31
- Leukopenia: No. of Patients Experiencing the AE, 5y Max Grade 3 [7]: 10
- Leukopenia: No. of Patients Experiencing the AE, 5y Max Grade 4 [7]: 2
- Mucositis: No. of Patients Experiencing the AE, 5y Max Grade 1 [7]: 23
- Mucositis: No. of Patients Experiencing the AE, 5y Max Grade 2 [7]: 15
- Mucositis: No. of Patients Experiencing the AE, 5y Max Grade 3 [7]: 11
- Mucositis: No. of Patients Experiencing the AE, 5y Max Grade 4 [7]: 3
- Nausea: No. of Patients Experiencing the AE, 5y Max Grade 1 [7]: 59
- Nausea: No. of Patients Experiencing the AE, 5y Max Grade 2 [7]: 19
- Nausea: No. of Patients Experiencing the AE, 5y Max Grade 3 [7]: 12
- Nausea: No. of Patients Experiencing the AE, 5y Max Grade 4 [7]: 1
- Pain Inject Site: No. of Patients Experiencing the AE, 5y Max Grade 1 [7]: 24
- Pain Inject Site: No. of Patients Experiencing the AE, 5y Max Grade 2 [7]: 0
- Pain Inject Site: No. of Patients Experiencing the AE, 5y Max Grade 3 [7]: 0
- Pain Inject Site: No. of Patients Experiencing the AE, 5y Max Grade 4 [7]: 0
- Pain, Abdominal: No. of Patients Experiencing the AE, 5y Max Grade 1 [7]: 4
- Pain, Abdominal: No. of Patients Experiencing the AE, 5y Max Grade 2 [7]: 3
- Pain, Abdominal: No. of Patients Experiencing the AE, 5y Max Grade 3 [7]: 1
- Pain, Abdominal: No. of Patients Experiencing the AE, 5y Max Grade 4 [7]: 0
- Rash: No. of Patients Experiencing the AE, 5y Max Grade 1 [7]: 26
- Rash: No. of Patients Experiencing the AE, 5y Max Grade 2 [7]: 15
- Rash: No. of Patients Experiencing the AE, 5y Max Grade 3 [7]: 9
- Rash: No. of Patients Experiencing the AE, 5y Max Grade 4 [7]: 3
- Somnolence: No. of Patients Experiencing the AE, 5y Max Grade 1 [7]: 7
- Somnolence: No. of Patients Experiencing the AE, 5y Max Grade 2 [7]: 2
- Somnolence: No. of Patients Experiencing the AE, 5y Max Grade 3 [7]: 0
- Somnolence: No. of Patients Experiencing the AE, 5y Max Grade 4 [7]: 0
- Stomatitis: No. of Patients Experiencing the AE, 5y Max Grade 1 [7]: 32
- Stomatitis: No. of Patients Experiencing the AE, 5y Max Grade 2 [7]: 20
- Stomatitis: No. of Patients Experiencing the AE, 5y Max Grade 3 [7]: 7
- Stomatitis: No. of Patients Experiencing the AE, 5y Max Grade 4 [7]: 1
- Thrombocytopenia: No. of Patients Experiencing the AE, 5y Max Grade 1 [7]: 26
- Thrombocytopenia: No. of Patients Experiencing the AE, 5y Max Grade 2 [7]: 31
- Thrombocytopenia: No. of Patients Experiencing the AE, 5y Max Grade 3 [7]: 16
- Thrombocytopenia: No. of Patients Experiencing the AE, 5y Max Grade 4 [7]: 21
- Vomit: No. of Patients Experiencing the AE, 5y Max Grade 1 [7]: 32
- Vomit: No. of Patients Experiencing the AE, 5y Max Grade 2 [7]: 24
- Vomit: No. of Patients Experiencing the AE, 5y Max Grade 3 [7]: 12
- Vomit: No. of Patients Experiencing the AE, 5y Max Grade 4 [7]: 5
